Results as given in patent US20220008398A1 (priority 2018, published 2022).
Entries after “also recorded” stand apart in the source; their conditions may differ. Where two headings read alike, the source gives them in different places.

Assays:
[1] = tested on: sleep onset and sleep maintenance; details: three-month efficacy study, insomnia; cited from earlier work
[2] = tested on: severe major depressive disorder; details: 490 patients, daily oral gaboxadol 5 mg or 10 mg added to escitalopram 20 mg; cited from earlier work
[3] = tested on: suicidal ideation in major depressive disorder; assay: Prospective randomized clinical trial of oral gaboxadol versus ketamine in patients at risk of suicide
[4] = tested on: time spent floating (immobility) in forced swim; assay: Forced swim test; type: in vivo; details: mouse, single dose 10 mg/kg, 1 hour and 24 hours after drug delivery, vs vehicle treated control group
Description: The forced swim test is a frequently used behavioral protocol with a well-established therapeutic predictability for a broad range of antidepressants including ketamine (Porsolt et al. 1977; Cryan and Mombereau 2004; Cryan et al. 2005; Lucki et al. 2001). In this test the mouse is put in a beaker filled with water and the time spent struggling, swimming and floating is measured, with the time spent floating—when the mouse stops struggling to swim—being used as a behavioral correlate of depression.

[5] = tested on: combined delta, theta and alpha activity; details: 160 minutes after administration; cited from earlier work
[6] = tested on: drug-evoked expression of the immediate early gene c-fos, whole mouse brain
Text: A unique and novel approach to preclinical testing of psychiatric drugs is based on the proposition that a direct readout of drug-evoked brain activation or inhibition in an animal is the most relevant preclinical assay, because psychiatric drugs exert their effects via activation or inhibition of specific neural circuits and cell types in the brain. […] The method called “pharmacomapping” (implemented by Certerra, Inc. Farmingdale, N.Y.) is based on a largely automated drug-screening platform that comprises whole-brain detection of drug-evoked neuronal activation represented by drug-evoked expression of the immediate early gene (IEG) c-fos (Herrera and Robertson 1996). Until now, the detection of c-fos as a marker of brain activation has been done by laborious methods of in situ hybridization or immunohistochemistry in brain tissue sections, followed by mounting the sections on microscopic slides, manual imaging, and largely visual quantification. Nevertheless, over the last two decades a number of studies used these methods to test drug-evoked activity in the mouse or rat brain for various psychoactive medications, including antipsychotics, antidepressants, stimulants and anxiolytics (Engber et al., 1998; Kiss, 2018; Salminen et al., 1996; SEMBA et al., 1996; Slattery et al., 2005; Sumner et al., 2004).
In contrast to the older methods, the pharmacomapping method uses automated and standardized whole-brain immunostaining and brain clearing together with advanced microscopy (light-sheet fluorescence microscopy, LSFM), computational (e.g. machine learning) and statistical methods (FIG. 1). The first generation of this platform used serial two-photon tomography (STPT) as a method for imaging and c-fos-GFP mice expressing green fluorescent protein (GFP) under the control of the c-fos promoter (US 20140297199A1).

[7] = gaboxadol group vs ketamine group
[8] = acute single dose 10 mg/kg, 10 mg/kg

| Compound | effects in sleep onset and sleep maintenance [1] | benefit in treatment of severe major depressive disorder [2] | day 1 POMS total mood disturbance score [3, 7] | decrease in suicidal ideation at 230 minutes [3, 7] | proportion of responders on the SSI at day 1 [3, 7] | Cohen's d for the difference in mean group change (SSI) ([3]; gaboxadol group vs ketamine group, baseline to day 1) | average SSI score at day 1 ([3]; gaboxadol hydrochloride 0.85 mg/kg oral vs ketamine 0.5 mg/kg infusion, 24 hours) | time spent floating (immobility) during 6 min forced swim [4] | whole head MEG planar gradiometer increase in combined delta, theta and alpha activity [5] | drug-evoked brain activation (pharmacomap) ([6]; 3 mg/kg alone) | drug-evoked brain activation (pharmacomap) [6, 8] | drug-evoked brain activation (pharmacomap) ([6]; acute single dose 10 mg/kg, listed as Gaboxadol, 10 mg/kg) | drug-evoked brain activation (pharmacomap) ([6]; 6 mg/kg alone) | drug-evoked brain activation (pharmacomap) ([6]; acute single dose 5 mg/kg) | drug-evoked brain activation (pharmacomap) ([6]; acute single dose 100 mg/kg) |
| --- | --- | --- | --- | --- | --- | --- | --- | --- | --- | --- | --- | --- | --- | --- | --- |
| Oc1noc2c1CCNC2 [gaboxadol, 4,5,6,7-tetrahydroisoxazolo [5,4-c]pyridine-3-ol] | failed to show significant effects in sleep onset and sleep maintenance | no additional benefit | greater improvement in the gaboxadol group compared with the ketamine group | greater in the gaboxadol group compared with the ketamine group | significantly higher in the gaboxadol group than the ketamine group | greater than medium effect size | lower in the gaboxadol group compared with the ketamine group | nearly identical behavioral effect as the ketamine group; also recorded: significantly reduced the time spent in floating (immobility) | ≥ +3 | neither gaboxadol at 3 mg/kg nor ketamine at 6 mg/kg alone evoked any brain activation detectable | very similar brain activation as ketamine | broad brain activation that is highly similar to that of ketamine |  |  |  |
| CNC1(c2ccccc2Cl)CCCCC1=O (centres unmarked) [ketamine] |  |  |  |  |  |  |  | significantly decreases the time the drug treated mice spent floating; also recorded: significantly reduced the time spent in floating (immobility) |  |  | very robust and broad activation; also recorded: very broad activation pattern |  | neither gaboxadol at 3 mg/kg nor ketamine at 6 mg/kg alone evoked any brain activation detectable | modest activation | modest activation |
